“Also recorded” adds a separate entry of the source. Structures can show the parent of a compound that is named as a salt. No end group written: not given here.
What was measured:
[1] = target: T1, rat cloned 5-HT7 receptor (Rattus norvegicus, UniProt P32305); test: Radioligand binding assay ([3H]-LSD) at rat cloned 5-HT7Rs; settings: for Ki: [3H]-LSD, rat recombinant 5-HT7R expressed in HEK-293 cells
T1 construct: purchased PerkinElmer-NEN; host or cells: HEK-293
Procedure: Rat recombinant serotonin 5-HT7R expressed in HEK-293 cells were purchased from PerkinElmer-NEN (Betsville, Md., USA).
Radioligand Binding Assay at Rat Cloned 5-HT7Rs. Binding of [^3H]-LSD at rat cloned 5-HT7 receptor was performed according to a known method. In 1 mL of incubation buffer (50 mM Tris, 10 mM MgCl2 and 0.5 mM EDTA, pH 7.4) were suspended 30 μg of membranes, 2.5 nM [^3H]-LSD, the drugs or reference compound (six to nine concentrations). The samples were incubated for 60 min at 37° C. The incubation was stopped by rapid filtration on GF/A glass fiber filters (pre-soaked in 0.5% polyethylenimine for 30 min). The filters were washed with 3 ? 3 mL of ice-cold buffer (50 mM Tris, pH 7.4). Nonspecific binding was determined in the presence of 10 μM 5-CT. Approximately 90% of specific binding was determined under these conditions.

5-HT1A receptors = target: T2, 5-HT1A receptors (Rattus norvegicus, UniProt P19327); settings: for Ki: read-out: Ki, nM 5-HT1A, [3H]-8-OH-DPAT, rat hippocampal membranes
T2 sequence (P19327 1-422): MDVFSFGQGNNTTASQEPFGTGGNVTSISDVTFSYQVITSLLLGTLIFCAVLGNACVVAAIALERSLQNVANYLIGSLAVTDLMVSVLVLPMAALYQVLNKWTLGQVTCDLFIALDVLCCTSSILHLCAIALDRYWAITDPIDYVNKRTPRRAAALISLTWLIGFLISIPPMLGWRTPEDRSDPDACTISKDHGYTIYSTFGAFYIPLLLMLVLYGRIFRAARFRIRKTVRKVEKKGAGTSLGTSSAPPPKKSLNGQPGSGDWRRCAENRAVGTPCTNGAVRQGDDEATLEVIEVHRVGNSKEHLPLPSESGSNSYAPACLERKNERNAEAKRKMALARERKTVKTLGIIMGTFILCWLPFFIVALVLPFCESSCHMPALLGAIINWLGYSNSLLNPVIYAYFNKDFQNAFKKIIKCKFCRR
Procedure: Radioligand Binding Assay at Rat Hippocampal Membranes 5-HT1A Receptors. Binding experiments were performed according to a known method. Rats were killed by decapitation, the brain was quickly removed, and the hippocampus was dissected. […] The homogenate was centrifuged at 48000 g for 15 min at 4° C. The supernatant was discarded, and the pellet was resuspended in 25 mL of buffer, then preincubated for 10 min at 37° C. The homogenate was centrifuged at 48000 g for 15 min at 4° C. The supernatant was discarded, and the final pellet was stored at −80° C. until used. […] For competitive inhibition experiments various concentrations of drugs studied were incubated. […] Samples were incubated at 37° C. for 20 min and then filtered on Whatman GF/B glass microfiber filters.
Statistical Analysis. […] The value for the inhibition constant, Ki, was calculated by using the Cheng-Prusoff equation.

5-HT2A receptors [2] = target: T3, 5-HT2A receptors (Rattus norvegicus, UniProt P14842); test: Radioligand binding assay ([3H]-ketanserin) at rat cortex membranes 5-HT2A receptors; settings: for Ki: read-out: Ki, nM 5-HT2A, [3H]-ketanserin, rat cortex membranes
T3 sequence (P14842 whole entry): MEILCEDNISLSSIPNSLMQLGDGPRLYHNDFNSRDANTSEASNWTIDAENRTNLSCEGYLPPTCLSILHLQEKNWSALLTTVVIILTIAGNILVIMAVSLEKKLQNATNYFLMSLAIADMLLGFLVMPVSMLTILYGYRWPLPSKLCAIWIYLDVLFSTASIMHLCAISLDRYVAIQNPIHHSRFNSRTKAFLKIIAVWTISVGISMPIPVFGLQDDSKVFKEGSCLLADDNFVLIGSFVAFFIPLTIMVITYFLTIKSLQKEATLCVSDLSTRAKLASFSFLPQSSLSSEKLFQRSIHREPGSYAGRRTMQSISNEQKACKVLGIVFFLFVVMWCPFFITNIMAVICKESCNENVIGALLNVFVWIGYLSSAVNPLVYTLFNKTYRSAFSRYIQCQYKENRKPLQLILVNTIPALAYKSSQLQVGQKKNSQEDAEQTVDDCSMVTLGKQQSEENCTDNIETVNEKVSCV
Procedure: (§1) Radioligand Binding Assay at Rat Cortex Membranes 5-HT2A Receptors. […] Rats were killed by decapitation, the brain was quickly removed, and the cortex was dissected. […] The homogenate was centrifuged at 2000 g for 10 min at 4° C. The supernatant was saved, and the pellet was resuspended in 25 mL of buffer. The surnatantes were collected and diluted 1:10 w/w with 10 mM Tris pH 7.4. The homogenate was centrifugated at 35000 g for 15 min at 4° C. The supernatant was discarded, and the final pellet was stored at −80° C. until used. […] For competitive inhibition experiments various concentrations of drugs studied were incubated. […] Samples were incubated at 37° C. for 15 min and then filtered on Whatman GF/B glass microfiber filters.
(§2) Statistical Analysis. […] PRISM® program. The value for the inhibition constant, Ki, was calculated by using the Cheng-Prusoff equation.

hamsters = test: Circadian phase shift in hamsters after injection; assay type: in vivo
From the text: This provides evidence that no additional receptor subtype, such as the 5-HT1A receptor or the 5-HT5A receptor, is necessary for this effect.

5-HT2A receptors [3] = target: T3, 5-HT2A receptors
Procedure: as §1, §2

5-HT7 receptor = 5-HT7 receptor (Cavia porcellus, UniProt P50407); test: Isolated guinea-pig ileum assay: relaxation of substance P-induced contraction; settings: for PA2 (vs SB-269970): in the presence of antagonist SB-269970 (0.1 μM-3 μM); for 5-HT7 intrinsic activity (in words): isolated guinea-pig ileum; for Emax: read-out: Maximal Effect %; for Schild plot: vs SB-269970, p value in parentheses
5-HT7 receptor, sequence (P50407 whole entry): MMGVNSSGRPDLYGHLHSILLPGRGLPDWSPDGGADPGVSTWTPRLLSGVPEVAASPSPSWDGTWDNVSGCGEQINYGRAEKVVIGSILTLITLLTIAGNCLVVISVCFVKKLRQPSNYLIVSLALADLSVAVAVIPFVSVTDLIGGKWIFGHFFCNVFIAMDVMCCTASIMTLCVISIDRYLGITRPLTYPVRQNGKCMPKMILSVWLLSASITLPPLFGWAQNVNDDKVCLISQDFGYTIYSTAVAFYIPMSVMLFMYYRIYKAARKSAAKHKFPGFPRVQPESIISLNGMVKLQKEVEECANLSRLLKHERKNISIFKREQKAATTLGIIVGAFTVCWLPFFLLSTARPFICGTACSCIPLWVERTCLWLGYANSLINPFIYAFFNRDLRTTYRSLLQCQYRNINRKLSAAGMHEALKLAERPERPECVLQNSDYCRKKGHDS
Procedure: Isolated Guinea-Pig Ileum Assay. Guinea-pigs were anesthetized and then decapitated and the proximal ileum removed. […] Changes in tension of the tissue were recorded by Fort 10 Original WPI isometric transducer (2Biological Instruments, Italy) connected to a PowerLab/400 workstation. […] Tested compounds were added 3 min before substance P addition.
The isolated guinea pig ileum was equilibrated for 75 min with antagonist before constructing concentration-response curves of tested compounds.
Tissue responses were recorded as gram changes in isometric tension and expressed as percentage of reduction in the height of the contraction.
Agonist potencies, expressed as EC50, were obtained from non-linear iterative curve fitting by [sequence] PRISM®.

[4] = test system: isolated guinea-pig ileum; test: Substance P contraction of isolated guinea-pig ileum (concentration-response); settings: 100 nM
From the text: Isolated Guinea-Pig Ileum Assay.

T1 sequence (P32305 whole entry): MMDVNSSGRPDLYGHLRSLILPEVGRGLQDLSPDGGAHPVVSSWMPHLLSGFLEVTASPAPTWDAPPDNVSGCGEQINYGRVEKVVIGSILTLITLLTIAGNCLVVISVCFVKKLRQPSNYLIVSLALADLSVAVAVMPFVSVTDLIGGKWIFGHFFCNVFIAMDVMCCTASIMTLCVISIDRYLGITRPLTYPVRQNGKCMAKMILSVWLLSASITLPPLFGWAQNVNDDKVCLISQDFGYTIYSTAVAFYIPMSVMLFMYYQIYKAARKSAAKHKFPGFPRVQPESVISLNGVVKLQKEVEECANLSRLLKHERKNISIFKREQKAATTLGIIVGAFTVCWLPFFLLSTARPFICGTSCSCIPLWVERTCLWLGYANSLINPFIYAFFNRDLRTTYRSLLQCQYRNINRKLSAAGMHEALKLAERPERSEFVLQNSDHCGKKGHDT

Molecule	melting point [°C]	Ki [1] [nM]	Ki (5-HT1A receptors) [nM]	Ki (5-HT2A receptors [2]) [nM]	further results
COc1ccc2c(c1)C(NC(=O)CCCCCN1CCN(c3ccccc3OC)CC1)CCC2 (stereo not drawn) (as salt: HCl) [Compound 22]	175 to 178				
COc1cc(Cl)ccc1N1CCN(CCCCCC(=O)NC2CCCc3ccccc32)CC1 (stereo not drawn) [Compound 35]		122 ± 14	332 ± 27	7170 ± 150	
CC1CCN(CC[C@H]2CCCN2S(=O)(=O)c2cccc(O)c2)CC1 [SB-26770-A, reference compound]					effect on phase shifts caused by compound 44 (hamsters; microinjection into the dorsal raphe before compound 44, relative to vehicle pretreatment): significantly block phase shifts
O=C(CCCCCN1CCN(c2ccccc2Cl)CC1)NC1CCCc2ccccc21 (stereo not drawn) [Compound 47]		40.1 ± 6.7	96 ± 8	301 ± 12	
N#Cc1ccccc1N1CCN(CCCCCC(=O)NC2CCCc3ccccc32)CC1 (stereo not drawn) [Compound 33]		48.7 ± 2.5	16.6 ± 1.4	700 ± 25	5-HT7R affinity (in words) [1]: reasonably good 5-HT7R affinity
COc1cccc(N2CCN(CCCCCC(=O)NC3CCCc4ccccc43)CC2)c1 (stereo not drawn) [Compound 37]		119 ± 20	105 ± 12	142 ± 20	
NC(=O)c1ccccc1N1CCN(CCCCCC(=O)NC2CCCc3ccccc32)CC1 (stereo not drawn) [Compound 43]		229 ± 12	494 ± 35		5-HT2A, percentage in parentheses after >4000 (5-HT2A receptors [3]): 9%
COc1ccccc1N1CCN(CCCCC(=O)NC2CCCc3ccccc32)CC1 (stereo not drawn) (as salt: HCl) (hydrate or solvate) [Compound 27, 4-(2-Methoxyphenyl)-N-(1,2,3,4-tetrahydronaphthalen-1-yl)-1-piperazinepentanamide]	199 to 200				
COc1ccccc1N1CCN(CCCCCC(=O)NC2CCCc3ccccc32)CC1 (stereo not drawn) [Compound 28, 4-(2-Methoxyphenyl)-N-(1,2,3,4-tetrahydronaphthalen-1-yl)-1-piperazinehexanamide]		6.64 ± 0.6	8.6 ± 0.35		5-HT7R affinity (in words) [1]: high affinity; EC50 (5-HT7 receptor): 6320 ± 200 nM; PA2 (vs SB-269970) (5-HT7 receptor): 8.02 ± 1.40; 5-HT7 intrinsic activity (in words) (5-HT7 receptor): Full agonists; Emax (5-HT7 receptor): 91%; Schild plot (5-HT7 receptor): 1.0 (p < 0.0001)
CS(=O)(=O)c1ccccc1N1CCN(CCCCCC(=O)NC2CCCc3ccccc32)CC1 (stereo not drawn) [Compound 45]		298 ± 16	3120 ± 260		5-HT2A, percentage in parentheses after >4000 (5-HT2A receptors [3]): 38%
O=C(CCCCCN1CCN(c2ccccc2[N+](=O)[O-])CC1)NC1CCCc2ccccc21 (stereo not drawn) [Compound 48]		63.3 ± 7.5	183 ± 15	282 ± 35	
Cc1ccccc1N1CCN(CCCCCC(=O)NC2CCCc3ccccc32)CC1 (stereo not drawn) [Compound 49, 4-(2-Methylphenyl)-N-(1,2,3,4-tetrahydronaphthalen-1-yl)-1-piperazinehexanamide]		15.2 ± 3.2	279 ± 44	262 ± 24	5-HT7R affinity (in words) [1]: high affinity; EC50 (5-HT7 receptor): 1820 ± 720 nM; PA2 (vs SB-269970) (5-HT7 receptor): 7.80 ± 0.40; 5-HT7 intrinsic activity (in words) (5-HT7 receptor): Full agonists; Emax (5-HT7 receptor): 98%; Schild plot (5-HT7 receptor): 0.9 (p < 0.0001)
CC(=O)c1cccc(N2CCN(CCCCCC(=O)NC3CCCc4ccccc43)CC2)c1 (stereo not drawn) [Compound 41]		496 ± 24	676 ± 32	1130 ± 200	
CSc1ccccc1N1CCN(CCCCCC(=O)NC2CCCc3ccccc32)CC1 (stereo not drawn) [Compound 44, 4-(2-Methylthiophenyl)-N-(1,2,3,4-tetrahydronaphthalen-1-yl)-1-piperazinehexanamide]		0.22	52.7 ± 3.2	326 ± 35	5-HT7R affinity (in words) [1]: high affinity; circadian phase shift (hamsters; microinjection into the dorsal raphe): cause phase shift advances; selectivity over 5-HT1A receptors (5-HT1A receptors; 5-HT7R versus 5-HT1A): 200 fold; EC50 (5-HT7 receptor): 2560 nM; PA2 (vs SB-269970) (5-HT7 receptor): 7.70 ± 0.80; 5-HT7 intrinsic activity (in words) (5-HT7 receptor): Full agonists; Emax (5-HT7 receptor): 100%; Schild plot (5-HT7 receptor): 0.9 (p < 0.0001); selectivity over 5-HT2A receptors (5-HT2A receptors [2]; 5-HT7R versus 5-HT2A): > 1000 fold
COc1ccc2c(c1)C(NC(=O)CCCCN1CCN(c3ccccc3OC)CC1)CCC2 (stereo not drawn) (as salt: HCl) (hydrate or solvate) [Compound 21]	187 to 188				
substance P: contracting agent of the guinea-pig ileum assay, purchased from Tocris Cookson (RPKPQQFFGLM; ends and bridges not checked; UniProt P20366 58-68, looked up)					contraction, % of maximum contraction [4]: 80%
N#Cc1cccc(N2CCN(CCCCCC(=O)NC3CCCc4ccccc43)CC2)c1 (stereo not drawn) [Compound 39]		97.8 ± 5.6	291 ± 15	909 ± 85	
CC(=O)c1ccc(N2CCN(CCCCCC(=O)NC3CCCc4ccccc43)CC2)cc1 (stereo not drawn) (as salt: HCl) [Compound 42]	112 to 114				
O=C(CCCCCN1CCN(c2ccccc2)CC1)NC1CCCc2ccccc21 (stereo not drawn) [Compound 50]		65.6 ± 4.7	128 ± 22	77.8 ± 5.7	
COc1ccc(OC)c(N2CCN(CCCCCC(=O)NC3CCCc4ccccc43)CC2)c1 (stereo not drawn) [Compound 36]		70.3 ± 5.2	911 ± 23	259 ± 20	
COc1ccccc1N1CCN(CCCC(=O)NC2CCCc3cccc(OC)c32)CC1 (stereo not drawn) (as salt: HCl) [Compound 23, N-(8-Methoxy-1,2,3,4-tetrahydronaphthalen-1-yl)4-(2-methoxyphenyl)-1-piperazinebutanamide]	131 to 133				
O=C(CCCCCN1CCN(c2ccccc2O)CC1)NC1CCCc2ccccc21 (stereo not drawn) [Compound 46, 4-(2-Hydroxyphenyl)-N-(1,2,3,4-tetrahydronaphthalen-1-yl)-1-piperazinehexanamide]		11.4 ± 2.3	24 ± 6.3	3390 ± 225	5-HT7R affinity (in words) [1]: high affinity; 5-HT7 intrinsic activity (in words) (5-HT7 receptor): antagonist; Emax (5-HT7 receptor): 0%; Schild plot (5-HT7 receptor): 1.6 (p < 0.005)
CC(=O)c1ccccc1N1CCN(CCCCCC(=O)NC2CCCc3ccccc32)CC1 (stereo not drawn) [Compound 34, 4-(2-Acetylphenyl)-N-(1,2,3,4-tetrahydronaphthalen-1-yl)-1-piperazinehexanamide]		4.14 ± 0.8	3.8 ± 0.1	12200 ± 350	5-HT7R affinity (in words) [1]: reasonably good 5-HT7R affinity; also recorded: high affinity; EC50 (5-HT7 receptor): 2460 ± 700 nM; PA2 (vs SB-269970) (5-HT7 receptor): 7.60 ± 0.49; 5-HT7 intrinsic activity (in words) (5-HT7 receptor): partial agonist; Emax (5-HT7 receptor): 79%; Schild plot (5-HT7 receptor): 1.3 (p < 0.0001)
N#Cc1ccccc1N1CCN(CCCCCC(=O)NC2CCCc3ccccc32)CC1 (stereo not drawn) (as salt: HCl) (hydrate or solvate) [Compound 33]	175 to 178				
CS(=O)(=O)c1ccccc1N1CCN(CCCCCC(=O)NC2CCCc3ccccc32)CC1 (stereo not drawn) (as salt: HCl) (hydrate or solvate) [Compound 45]	120 to 122				
CC(=O)c1ccccc1N1CCN(CCCCCC(=O)NC2CCCc3ccccc32)CC1 (stereo not drawn) (as salt: HCl) (hydrate or solvate) [Compound 34, 4-(2-Acetylphenyl)-N-(1,2,3,4-tetrahydronaphthalen-1-yl)-1-piperazinehexanamide]	136 to 139				
COc1ccc(OC)c(N2CCN(CCCCCC(=O)NC3CCCc4ccccc43)CC2)c1 (stereo not drawn) (as salt: HCl) (hydrate or solvate) [Compound 36]	124 to 126				

Source: US7488730B2, “N-(1,2,3,4-tetrahydronaphthalen-1-yl)-4-phenyl-1-piperazinealkylamide derivatives, and therapeutic use thereof as 5-HT7 receptor ligands” (Universita Degli Studi Di Bari, priority 2005, dated 2009)
